# Key:
# Assay type in all cases: cell-based
# [1] = tested on: P. falciparum (highly chloroquine-resistant strain Fcm29-Cameroon); experiment: Antimalarial activity test (radioactive micromethod of Desjardins); settings: Plasmodium falciparum, Erythrocyte, infected human erythrocytes, 48 h, tritiated hypoxanthine incorporation
# Method: Antimalarial Activity Test
# The P. falciparum strains are cultured in solutions of RPM! […] For each assay, the parasites are incubated with selected concentrations of drugs for 48 h at 37° C. in a humid atmosphere and at 5% CO2. Artemisinin, artesunate and also chloroquine diphosphate are used as reference molecules. The first dilution of the drug is prepared at 1 mg/ml in dimethyl sulphoxide. The range of successive daughter solution dilutions is also prepared in dimethyl sulphoxide. […] These dilutions are then added to the parasites in culture in the microplates. […] The growth of the parasites is measured by incorporation of tritiated hypoxanthine (added 24 h after the beginning of the exposure to the drug) compared with the incorporation in the absence of drug.
# [2] = tested on: translocation of the LC3 protein in Hela GFP-LC3 cells; experiment: Study of the translocation of the LC3 protein in Hela human cells, measured by image analysis cytometry (Test C, autophagy); settings: 2 h, Hela GFP-LC3 cells with LC3 granulations, EBSS + 10 μM hydroxychloroquine, absolute IC50
# Method: The inhibitory activity of the molecules on autophagy is measured by the translocation of the LC3 protein from the cytoplasm to the autophagosomes. For this, Hela cells were transfected with a vector encoding the chimeric protein GFP-LC3. A Hela clone stably expressing the GFP-LC3 protein was selected.
# Study of the Translocation of the LC3 Protein in Hela Human Cells, Measured by Image Analysis Cytometry (Test C):
# On day 2, the cells are washed twice with EBSS (Sigma #E3024). The cells are then incubated in EBSS, 10 μM of hydroxychloroquine and test products for 2 h at 37° C. in the presence of 5% CO2. The molecules are diluted in dimethyl sulphoxide (DMSO Sigma #D2650), the final DMSO percentage being 0.1%.
# After this incubation, the cells are fixed with 4% paraformaldehyde (Sigma #HT501128 4 L) for 10 min. […] The 96-well plates are then read with the iCyte image analysis cytometer (Compucyte).
# Two independent experiments make it possible to calculate the mean of the IC50 values.
# [3] = tested on: AKT protein phosphorylated on serine 473 (P-AKT-S473) in PC3 human prostate carcinoma line; experiment: Study of pAKT expression in PC3 human prostate carcinoma cells measured by the MSD Multi-spot Biomarker Detection technique (Test B); settings: MSD sandwich immunoassay, 1 to 2 h incubation, absolute IC50, mean of 2 experiments
# Method: The inhibitory activity of the molecules on AKT phosphorylation is measured either by western blotting using the technique described below, or by the MSD Multi-spot Biomarker detection technique from Meso Scale Discovery also described below.
# Study of pAKT Expression in PC3Human Prostate Carcinoma Cells Measured by the MSD Multi-Spot Biomarker Detection Technique from Meso Scale Discovery (Test B):
# The primary antibody specific for P-AKT-S473 (Kit #K151CAD) is coated onto an electrode in each well of the 96-well plates of the MSD kit: after the addition of a protein lysate to each well, the signal is visualised by adding a secondary detection antibody labelled with an electrochemiluminescent compound. The procedure followed is that described in the kit.
# On day 2, the cells are incubated in the presence or absence of the test products for 1 to 2 h at 37° C. in the presence of 5% of CO2. The molecules, diluted in dimethyl sulphoxide (DMSO Sigma #D2650), are added from a 20-times concentrated stock solution, the final percentage of DMSO being 0.1%.
# After this incubation, the cells are lysed for the preparation of the proteins. […] At this stage, the plates containing the lysates can be frozen at −20° C. or at −80° C.
# The wells of the 96-well plates of the MSD kit are saturated for 1 h at ambient temperature with the blocking solution of the MSD kit. Four washes are carried out with 150 μl of Tris Wash Buffer of the MSD kit. The lysates previously prepared are transferred into the 96-well multi-spot plates of the MSD kit and incubated for 1 h at ambient temperature, with shaking. Four washes are carried out with 150 μl of Tris Wash Buffer of the MSD kit. 25 μl of the MSD sulfo-tag detection antibody solution are added to the wells and incubated for 1 h at ambient temperature, with shaking. Four washes are carried out with 150 μl of Tris Wash Buffer of the MSD kit. 150 μl of Read Buffer of the MSD kit are added to the wells and the plates are read immediately on the S12400 instrument from Meso Scale Discovery.
# The instrument measures a signal for each well. Wells without cells and containing the lysis buffer serve to determine the background noise that will be subtracted from all the measurements (min). The wells containing cells in the absence of product and in the presence of 0.1% DMSO are considered to be the 100% signal (max). The percentage inhibition is calculated for each concentration of test product according to the following formula: (1−((test−min)/(max−min)))×100.
# 2 independent experiments make it possible to calculate the mean of the IC50 values.
# [4] = Homo sapiens, PC-3, P-AKT-S473 in PC3 cells
Structure (SMILES),"IC50 ([2]; Homo sapiens, HeLa) [nM]","IC50 [3, 4] [nM]",other results
"COc1cc(Cl)ccc1[C@H](O)CN1c2nc(N3CCOCC3)cc(=O)n2CC[C@H]1C(F)(F)F [Example 53, 9-[(S)-2-(4-Chloro-2-methoxyphenyl)-2-hydroxyethyl]-2-morpholin-4-yl-8-(S)-trifluoromethyl-6,7,8,9-tetrahydro-pyrimido[1,2-a]pyrimidin-4-one]",–,–,inhibition at 0.1 µM [1]: 75%; inhibition at 1 µM [1]: 99%
"O=c1cc(N2CCOCC2)nc2n1CC[C@@H](C(F)(F)F)N2CCc1ccc(O)cc1 [Example 56, 9-[2-(4-Hydroxyphenyl)ethyl]-2-morpholin-4-yl-8-(S)-trifluoromethyl-6,7,8,9-tetrahydropyrimido[1,2-a]pyrimidin-4-one]",–,–,inhibition at 0.1 µM [1]: 94%; inhibition at 1 µM [1]: 99%
"O=c1cc(N2CCOCC2)nc2n1CC[C@@H](C(F)(F)F)N2C[C@@H](O)c1cc2ccccc2s1 [Example 48, 9-((R)-2-Benzo[b]thiophen-2-yl-2-hydroxyethyl)-2-morpholin-4-yl-8-(S)-trifluoromethyl-6,7,8,9-tetrahydro-pyrimido[1,2-a]pyrimidin-4-one]",–,–,inhibition at 0.1 µM [1]: 89%; inhibition at 1 µM [1]: 96%
"CN(C)CC(=O)Nc1cccc([C@H](O)CN2c3nc(N4CCOCC4)cc(=O)n3CC[C@H]2C(F)(F)F)c1 [Example 50, 2-Dimethylamino-N-{3-[(S)-1-hydroxy-2-((S)-8-morpholin-4-yl-6-oxo-2-trifluoromethyl-3,4-dihydro-2H,6H-pyrimido[1,2-a]pyrimidin-1-yl)ethyl]phenyl}acetamide]",–,–,inhibition at 0.1 µM [1]: 79%; inhibition at 1 µM [1]: 99%
"C[C@H](c1ccc(Br)cc1)N1c2nc(N3CCOCC3)cc(=O)n2CC[C@H]1C(F)(F)F (single isomer, unassigned) [Example 11, (8S)-9-[(1S or 1R)-1-(4-bromophenyl)ethyl]-2-(morpholin-4-yl)-8-(trifluoromethyl)-6,7,8,9-tetrahydro-4H-pyrimido[1,2-a]pyrimidin-4-one]",319,46,–
"O=c1cc(N2CCOCC2)nc2n1CC[C@@H](C(F)(F)F)N2Cc1csc2ccc(Cl)cc12 [Example 32, (8S)-9-[(5-chloro-1-benzothiophen-3-yl)methyl]-2-(morpholin-4-yl)-8-(trifluoromethyl)-6,7,8,9-tetrahydro-4H-pyrimido[1,2-a]pyrimidin-4-one]",780,33,–
"O=C(Cc1ccccc1)N1c2nc(N3CCOCC3)cc(=O)n2CC[C@H]1C(F)(F)F [Example 45, (8S)-2-(morpholin-4-yl)-9-(phenylacetyl)-8-(trifluoromethyl)-6,7,8,9-tetrahydro-4 H-pyrimido[1,2-a]pyrimidin-4-one]",> 1000,14,–
"CC(c1ccccc1F)N1c2nc(N3CCOCC3)cc(=O)n2CC[C@H]1C(F)(F)F (single isomer, unassigned) [Example 38, (8S)-9-[(1R or 1S)-1-(2-fluorophenyl)ethyl]-2-(morpholin-4-yl)-8-(trifluoromethyl)-6,7,8,9-tetrahydro-4 H-pyrimido[1,2-a]pyrimidin-4-one]",167,–,IC50 ([3]; P-AKT-S473 in PC3 cells): 2 nM
"CC(c1ccc(F)cc1)N1c2nc(N3CCOCC3)cc(=O)n2CC[C@H]1C(F)(F)F (single isomer, unassigned) [Example 34, (8S)-9-[(1R or 1S)-1-(4-fluorophenyl)ethyl]-2-(morpholin-4-yl)-8-(trifluoromethyl)-6,7,8,9-tetrahydro-4H-pyrimido[1,2-a]pyrimidin-4-one]",–,–,IC50 [2]: 35 nM; IC50 ([3]; P-AKT-S473 in PC3 cells): 22 nM
"COc1ccc([C@H](O)CN2c3nc(N4CCOCC4)cc(=O)n3CC[C@H]2C(F)(F)F)cc1 [Example 7, (8S)-9-[(2S)-2-hydroxy-2-(4-methoxyphenyl)ethyl]-2-(morpholin-4-yl)-8-(trifluoromethyl)-6,7,8,9-tetrahydro-4H-pyrimido[1,2-a]pyrimidin-4-one]",5,1,–
"O=c1c(F)c(N2CCOCC2)nc2n1CC[C@@H](C(F)(F)F)N2Cc1ccccc1 [Example 41, (8S)-9-benzyl-3-fluoro-2-(morpholin-4-yl)-8-(trifluoro-methyl)-6,7,8,9-tetrahydro-4 H-pyrimido[1,2-a]pyrimidin-4-one]",192,4,–
"CC(c1ccc(F)cc1)N1c2nc(N3CCOCC3)cc(=O)n2CC[C@H]1C(F)(F)F (single isomer, unassigned) [Example 33, (8S)-9-[(1R or 1S)-1-(4-fluorophenyl)ethyl]-2-(morpholin-4-yl)-8-(trifluoromethyl)-6,7,8,9-tetrahydro-4H-pyrimido[1,2-a]pyrimidin-4-one]",221,24,–
"O=c1cc(N2CCOCC2)nc2n1CC[C@@H](C(F)(F)F)N2c1cccnc1 [Example 19, (S)-2-morpholin-4-yl-9-pyridin-3-yl-8-trifluoromethyl-6,7,8,9-tetrahydropyrimido[1,2-a]pyrimidin-4-one]",> 1000,39,–
"O=c1cc(N2CCOCC2)nc2n1CC[C@@H](C(F)(F)F)N2Cc1ccc(F)cc1F [Example 30, (8S)-9-(2,4-difluorobenzyl)-2-(morpholin-4-yl)-8-(trifluoro-methyl)-6,7,8,9-tetrahydro-4H-pyrimido[1,2-a]pyrimidin-4-one]",212,43,–
"Cc1cccc(N2c3nc(N4CCOCC4)cc(=O)n3CC[C@H]2C(F)(F)F)c1 [Example 35, (8S)-9-(3-methylphenyl)-2-(morpholin-4-yl)-8-(trifluoro-methyl)-6,7,8,9-tetrahydro-4H-pyrimido[1,2-a]pyrimidin-4-one]",650,20,–
"O=C(c1c(F)cccc1F)N1c2nc(N3CCOCC3)cc(=O)n2CC[C@H]1C(F)(F)F [Example 43, (8S)-9-[(2,6-difluorophenyl)carbonyl]-2-(morpholin-4-yl)-8-(trifluoromethyl)-6,7,8,9-tetrahydro-4 H-pyrimido[1,2-a]pyrimidin-4-one]",986,16,–
"O=c1cc(N2CCOCC2)nc2n1CC[C@@H](C(F)(F)F)N2CCc1cccc(Cl)c1 [Example 46, (8S)-9-[2-(3-chlorophenyl)ethyl]-2-(morpholin-4-yl)-8-(trifluoromethyl)-6,7,8,9-tetrahydro-4 H-pyrimido[1,2-a]pyrimidin-4-one]",16,4,–
"O=c1cc(N2CCOCC2)nc2n1CC[C@@H](C(F)(F)F)N2c1cccc(F)c1 [Example 14, (8S)-9-(3-fluorophenyl)-2-(morpholin-4-yl)-8-(trifluoromethyl)-6,7,8,9-tetrahydro-4H-pyrimido[1,2-a]pyrimidin-4-one]",337,15,–
"O=c1cc(N2CCOCC2)nc2n1CC[C@@H](C(F)(F)F)N2Cc1ccc(F)c(F)c1F [Example 31, (8S)-2-(morpholin-4-yl)-9-(2,3,4-trifluorobenzyl)-8-(trifluoro-methyl)-6,7,8,9-tetrahydro-4H-pyrimido[1,2-a]pyrimidin-4-one]",557,150,–

# Reference: patent publication US8846670B2, “1,2,3,4-tetrahydro-pyrimido(1,2-a)pyrimidin-6-one derivatives, preparation thereof, and pharmaceutical use thereof” (priority 2009, dated 2014)
